Key:
Test in all cases: Test C greenhouse herbicide test, pre- and postemergence
Format in all cases: in vivo
[1] = system: velvetleaf (Abutilon theophrasti)
In short: (§1)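 Each species was treated both before emergence, in a loam–sand soil mix, and after emergence, as 1- to 4-leaf seedlings in peat-based potting medium. Plants stayed in the greenhouse 13 to 15 d, then were scored from 0 (no effect) to 100 (complete control) relative to controls.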

[2] = system: morningglory (Ipomoea coccinea)
In short: as §1

[3] = system: crabgrass, large (large crabgrass, Digitaria sanguinalis)
In short: as §1

[4] = system: wheat (winter wheat, Triticum aestivum)
In short: as §1

[5] = system: barnyardgrass (Echinochloa crus-galli)
In short: as §1

[6] = system: foxtail, giant (giant foxtail, Setaria faberii)
In short: as §1

[7] = system: pigweed (Amaranthus retroflexus)
In short: as §1

[8] = system: lambsquarters (Chenopodium album)
In short: as §1

[9] = system: nutsedge, yellow (yellow nutsedge, Cyperus esculentus)
In short: as §1

soybean (Glycine max) = system: soybean (Glycine max)
In short: as §1

[10] = system: blackgrass (Alopecurus myosuroides)
In short: as §1

[11] = system: galium (catchweed bedstraw, Galium aparine)
In short: as §1

[12] = system: waterhemp (common waterhemp, Amaranthus rudis)
In short: as §1

corn (Zea mays) = system: corn (Zea mays)
In short: as §1

[13] = system: ryegrass, Italian (Italian ryegrass, Lolium multiflorum)
In short: as §1

[14] = Postemergence, 31 g ai/ha, 0 to 100 scale (0 no effect, 100 complete control)
[15] = Postemergence, 125 g ai/ha, scale 0 to 100, 0 is no effect, 100 is complete control
[16] = Postemergence, 250 g ai/ha, scale 0 to 100, 0 no effect, 100 complete control, 13 to 15 d
[17] = Preemergence, 62 g ai/ha, scale 0 to 100, 0 is no effect, 100 is complete control
[18] = Preemergence, 125 g ai/ha, scale 0 to 100, 0 is no effect, 100 is complete control
[19] = Preemergence, 250 g ai/ha, scale 0 to 100, 0 no effect, 100 complete control
[20] = postemergence, 62 g ai/ha, scale 0 to 100, 0 no effect, 100 complete control
[21] = Preemergence, 31 g ai/ha, scale 0 to 100, 0 is no effect, 100 is complete control
[22] = Postemergence, 31 g ai/ha, scale 0 to 100 (0 no effect, 100 complete control)
[23] = Postemergence, 62 g ai/ha, 0 to 100 scale (0 no effect, 100 complete control)

Cn1nc(Br)c(O)c(-c2cccc3ccccc23)c1=O [Compound 20]
5: Crabgrass, Large plant response rating [3, 14] | Barnyardgrass plant response rating [5, 14] | Plant response rating, Barnyardgrass [5, 21] | Plant response rating, Foxtail, Giant [6, 21] | Blackgrass plant response rating [10, 14] | Plant response rating, Blackgrass [10, 17] | Corn plant response rating (corn (Zea mays); [14]) | Plant response rating, Corn (corn (Zea mays); [15]) | Plant response rating, Corn (corn (Zea mays); [18]) | Corn plant response rating (corn (Zea mays); [20])
100: Plant response rating, Velvetleaf [1, 16] | Plant response rating, Velvetleaf [1, 18] | Velvetleaf plant response rating [1, 19] | Morningglory plant response rating [2, 14] | Plant response rating, Morningglory [2, 15] | Plant response rating, Morningglory [2, 16] | Morningglory plant response rating [2, 19] | Morningglory plant response rating [2, 20] | Plant response rating, Pigweed [7, 16] | Plant response rating, Pigweed [7, 21] | Plant response rating, Pigweed [7, 17] | Plant response rating, Pigweed [7, 18] | Pigweed plant response rating [7, 19] | Plant response rating, Lambsquarters [8, 15] | Plant response rating, Lambsquarters [8, 16] | Plant response rating, Galium [11, 15] | Plant response rating, Galium [11, 16] | Plant response rating, Galium [11, 17] | Galium plant response rating [11, 20] | Plant response rating, Waterhemp [12, 17] | Plant response rating, Waterhemp [12, 18] | Waterhemp plant response rating [12, 19]
85: Plant response rating, Velvetleaf [1, 15] | Plant response rating, Morningglory [2, 21] | Barnyardgrass plant response rating [5, 19] | Foxtail, Giant plant response rating [6, 19] | Plant response rating, Lambsquarters [8, 17] | Plant response rating, Lambsquarters [8, 18] | Lambsquarters plant response rating [8, 20] | Plant response rating, Nutsedge, Yellow [9, 15] | Plant response rating, Nutsedge, Yellow [9, 17]
60: Crabgrass, Large plant response rating [3, 19] | Plant response rating, Barnyardgrass [5, 18] | Plant response rating, Waterhemp [12, 15] | Ryegrass, Italian plant response rating [13, 20]
95: Plant response rating, Nutsedge, Yellow [9, 16] | Plant response rating, Nutsedge, Yellow [9, 18] | Nutsedge, Yellow plant response rating [9, 19] | Plant response rating, Galium [11, 18] | Galium plant response rating [11, 19] | Plant response rating, Ryegrass, Italian [13, 17] | Plant response rating, Ryegrass, Italian [13, 18] | Ryegrass, Italian plant response rating [13, 19]
40: Plant response rating, Blackgrass [10, 18] | Waterhemp plant response rating [12, 20]
10: Plant response rating, Crabgrass, Large [3, 15] | Plant response rating, Crabgrass, Large [3, 21] | Crabgrass, Large plant response rating [3, 20] | Barnyardgrass plant response rating [5, 20] | Plant response rating, Blackgrass [10, 15] | Blackgrass plant response rating [10, 20] | Plant response rating, Corn (corn (Zea mays); [16])
45: Plant response rating, Barnyardgrass [5, 16] | Plant response rating, Foxtail, Giant [6, 15] | Nutsedge, Yellow plant response rating [9, 14] | Plant response rating, Blackgrass [10, 16]
98: Plant response rating, Morningglory [2, 17] | Plant response rating, Morningglory [2, 18] | Plant response rating, Pigweed [7, 15] | Galium plant response rating [11, 14]
65: Plant response rating, Foxtail, Giant [6, 18] | Nutsedge, Yellow plant response rating [9, 20]
90: Plant response rating, Velvetleaf [1, 17] | Pigweed plant response rating [7, 20] | Lambsquarters plant response rating [8, 19] | Plant response rating, Galium [11, 21] | Plant response rating, Waterhemp [12, 16] | Plant response rating, Ryegrass, Italian [13, 16]
80: Plant response rating, Foxtail, Giant [6, 16] | Lambsquarters plant response rating [8, 14] | Plant response rating, Lambsquarters [8, 21] | Plant response rating, Nutsedge, Yellow [9, 21] | Blackgrass plant response rating [10, 19] | Plant response rating, Ryegrass, Italian [13, 15]
75: Pigweed plant response rating [7, 14] | Plant response rating, Ryegrass, Italian [13, 21]
55: Ryegrass, Italian plant response rating [13, 14]
30: Plant response rating, Crabgrass, Large [3, 16] | Wheat plant response rating [4, 19] | Plant response rating, Barnyardgrass [5, 15] | Plant response rating, Barnyardgrass [5, 17] | Plant response rating, Foxtail, Giant [6, 17] | Plant response rating, Soybean (soybean (Glycine max); [18]) | Soybean plant response rating (soybean (Glycine max); [19])
25: Velvetleaf plant response rating [1, 14] | Velvetleaf plant response rating [1, 20] | Foxtail, Giant plant response rating [6, 20]
0: Wheat plant response rating [4, 14] | Plant response rating, Wheat [4, 15] | Plant response rating, Wheat [4, 16] | Plant response rating, Wheat [4, 17] | Wheat plant response rating [4, 20] | Foxtail, Giant plant response rating [6, 14] | Soybean plant response rating (soybean (Glycine max); [14]) | Plant response rating, Soybean (soybean (Glycine max); [16]) | Soybean plant response rating (soybean (Glycine max); [20]) | Plant response rating, Blackgrass [10, 21] | Plant response rating, Corn (corn (Zea mays); [21]) | Plant response rating, Corn (corn (Zea mays); [17])
70: Waterhemp plant response rating [12, 14]
20: Plant response rating, Soybean (soybean (Glycine max); [17])
35: Plant response rating, Wheat [4, 18] | Plant response rating, Soybean (soybean (Glycine max); [15]) | Corn plant response rating (corn (Zea mays); [19])
15: Plant response rating, Crabgrass, Large [3, 17] | Plant response rating, Crabgrass, Large [3, 18]

Cc1nn(C)c(=O)c(-c2cccc3ccc(Br)cc23)c1O [Compound 126]
10: Plant response rating, Crabgrass, Large [3, 22] | Soybean plant response rating (soybean (Glycine max); [23]) | Plant response rating, Blackgrass [10, 15] | Plant response rating, Corn (corn (Zea mays); [22]) | Corn plant response rating (corn (Zea mays); [23])
95: Plant response rating, Velvetleaf [1, 16] | Plant response rating, Morningglory [2, 22] | Morningglory plant response rating [2, 23] | Plant response rating, Pigweed [7, 15] | Plant response rating, Pigweed [7, 16] | Lambsquarters plant response rating [8, 23] | Plant response rating, Lambsquarters [8, 15] | Plant response rating, Lambsquarters [8, 16] | Galium plant response rating [11, 23] | Plant response rating, Waterhemp [12, 15]
20: Crabgrass, Large plant response rating [3, 23] | Plant response rating, Soybean (soybean (Glycine max); [15]) | Plant response rating, Corn (corn (Zea mays); [15])
25: Plant response rating, Barnyardgrass [5, 22] | Plant response rating, Foxtail, Giant [6, 16] | Plant response rating, Corn (corn (Zea mays); [16])
80: Plant response rating, Lambsquarters [8, 22] | Plant response rating, Ryegrass, Italian [13, 22]
98: Plant response rating, Velvetleaf [1, 15] | Plant response rating, Morningglory [2, 15] | Plant response rating, Morningglory [2, 16] | Plant response rating, Galium [11, 15] | Plant response rating, Galium [11, 16]
60: Nutsedge, Yellow plant response rating [9, 23]
5: Plant response rating, Wheat [4, 16] | Plant response rating, Foxtail, Giant [6, 22] | Plant response rating, Soybean (soybean (Glycine max); [22]) | Plant response rating, Blackgrass [10, 22] | Blackgrass plant response rating [10, 23]
0: Plant response rating, Wheat [4, 22] | Wheat plant response rating [4, 23] | Plant response rating, Wheat [4, 15]
75: Plant response rating, Waterhemp [12, 22]
70: Plant response rating, Nutsedge, Yellow [9, 15]
15: Foxtail, Giant plant response rating [6, 23] | Plant response rating, Foxtail, Giant [6, 15]
90: Pigweed plant response rating [7, 23] | Plant response rating, Galium [11, 22] | Waterhemp plant response rating [12, 23] | Plant response rating, Ryegrass, Italian [13, 15] | Plant response rating, Ryegrass, Italian [13, 16]
40: Plant response rating, Blackgrass [10, 16]
30: Plant response rating, Velvetleaf [1, 22] | Plant response rating, Crabgrass, Large [3, 15] | Plant response rating, Crabgrass, Large [3, 16] | Barnyardgrass plant response rating [5, 23]
35: Plant response rating, Barnyardgrass [5, 15] | Plant response rating, Nutsedge, Yellow [9, 22] | Plant response rating, Soybean (soybean (Glycine max); [16])
100: Plant response rating, Waterhemp [12, 16]
85: Velvetleaf plant response rating [1, 23] | Plant response rating, Pigweed [7, 22] | Plant response rating, Nutsedge, Yellow [9, 16] | Ryegrass, Italian plant response rating [13, 23]
50: Plant response rating, Barnyardgrass [5, 16]
